{"source": "patent US20230181633A1", "about": "“METHODS OF TREATING CANCER USING A COMBINATION OF TUMOR MEMBRANE VESICLES AND METFORMIN” (METACLIPSE THERAPEUTICS CORPORATION, priority 2019, published 2023)", "key": {"[1]": {"test_system": "SCCVII cells", "experiment": "SCCVII squamous cell tumor challenge, tumor growth over time", "type": "in vivo, C3H/Hej mice", "method": "FIGS. 1(A-C) is a set of graphs showing tumor growth over time. […] Tumor growth was measured over time. […] Tumors were palpable at day 3, which is when treatment with PBS, MET alone, TMV alone, or TMV + MET was initiated. The subsequent treatments were employed at days […]. […] Tumors were palpable at day 3, treatment of PBS control, MET alone, TMV alone, or TMV + MET was applied at days 10, 17, 24, 31, and 40. Tumor growth was measured over time. n=5 per group, two-way ANOVA with Tukey’s multiple comparison for statistical significance. For FIGS. 1(A-C), filled circle is PBS treatment group, filled square is MET alone treatment group, filled grey triangle is TMV alone treatment group, upside down triangle is MET + TMV treatment group. *p<0.05, **p<0.01, ***p<0.001.\nIn the same model (SCCVII), the TMV and MET treatment were delayed and given at Day 10 when the tumors were established (about 50 mm^2) (FIG. 1C)."}, "[2]": {"test_system": "MOC2 cells", "experiment": "MOC2 spontaneous lung metastasis", "type": "in vivo, C57BL/6J mice", "details": "lungs harvested after 25 days of tumor growth (FIG. 10)", "source_text": "C57BL/6J mice were inoculated with 500,000 MOC 2 cells s.c. in the hind flank. […] PBS, MET alone, TMV alone, or a combination of TMV + MET was employed at days 3, 8, 13, 18, and 25. Lungs were harvested and dispersed into single cell suspension after 25 days of tumor growth. Metastatic tumor cells were selected using G418 in vitro for 11-14 days and metastatic cells were quantified using a Nexelcom T4 cell counter.\nIn the murine head and neck MOC2 cancer model, the TMV vaccine generated from MOC2 tumors was administered at Day 3, while MET was started at Day 3 and continued every other day until end point. […] The lungs from these MOC2-challenged mice were harvested after 25 days of tumor growth and the number of metastatic cells was quantified after suspending the lungs into a single cell suspension (FIG. 10)."}, "[3]": {"test_system": "4T1 tumor cells", "experiment": "Lung metastasis in 4T1-challenged mice", "type": "in vivo, mouse", "method": "FIGS. 6(A-B) is a set of graphs showing the amount of 4T1 tumor cells (FIG. 6A) and metastatic clones (FIG. 6B) obtained in the lungs of 4T1 tumor-challenged mice treated with water, TMV alone, MET alone, or TMV + MET. **p<0.01, ***p<0.001,\n4T1-challenged mice were also analyzed for their metastatic potential. Upon sacrificing the mice, the lungs were analyzed for tumor colony forming units […] and overall total tumor cells (FIG. 6B)."}, "[4]": {"test_system": "4T1 mouse breast cancer cells", "experiment": "Survival after surgical resection of 4T1 tumors", "type": "in vivo", "method": "FIG. 8 is a graph showing survival of mice treated with PBS, TMV alone, MET alone, or TMV+MET after surgical resection of tumors. Mice were challenged 10 days before surgery with 4T1 tumor cells. After tumor establishment, tumors were resected on Day 0. Beginning on Day 5, 50 mg/kg metformin was administered. On Days 5 and 12, 4T1-derived TMVs were administered. […] Solid line is PBS treatment group, dashed line is MET alone, dotted line is TMV alone, dash and dot line is TMV and MET treatment.\nMice were divided into four groups of five mice per group, wherein each group was to be treated with either a PBS control, metformin (MET) alone, 4T1-derived TMV (as described in Example 1) or TMV+MET. Each mouse was challenged with 4T1 mouse breast cancer cells by subcutaneous injection and tumors were later surgically resected (Day 0). On Day 5, mice in the MET and TMV+MET groups were administered 50 mg/kg metformin in drinking water daily until Day 20. On Days 5 and 12, mice in the TMV and TMV+MET groups were administered a dose of TMVs formed from 4T1 cells. Mice were then analyzed for survival (FIG. 8)."}, "[5]": {"test_system": "oral squamous cell carcinoma MOC2 cells", "experiment": "MOC2 head and neck cancer model, tumor growth", "type": "in vivo, C57BL/6J mice", "details": "MOC2-challenged mice, treatment from Day 3 (FIG. 9A, 9B)", "procedure": "C57BL/6J mice were inoculated with 500,000 oral squamous cell carcinoma MOC2 cells s.c. in the hind flank. Tumors were palpable at day 3 post challenge. PBS, MET alone, TMV alone, or a combination of TMV + MET was employed at days 3, 8, 13, 18, and 25. Tumor growth was measured over time. […] Filled circle is PBS treatment group, filled square is MET alone treatment group, filled grey triangle is TMV alone treatment group, upside down triangle is MET + TMV treatment group. n=5 per group, two-way ANOVA with Tukey’s multiple comparison for statistical significance. *p<0.05, **p<0.01.\nIn the murine head and neck MOC2 cancer model, the TMV vaccine generated from MOC2 tumors was administered at Day 3, while MET was started at Day 3 and continued every other day until end point."}, "[6]": {"test_system": "immune cell subtypes in blood", "experiment": "Immune cell subtypes in blood of 4T1-challenged mice", "type": "in vivo, mouse", "method": "FIGS. 2(A-C) is a set of graphs showing percentages of T-cell subtypes in the blood of mice with 4T1 tumor. After 4T1 tumor challenge and treatment with water, TMV alone, MET alone, or TMV+MET, mouse blood samples were analyzed for percentage of CD3+ (FIG. 2A), CD4+ (FIG. 2B), and CD8+ (FIG. 2C) T-cells, in relation to CD45+ T cells. Filled circle is water treatment group, filled square is MET treatment group, filled grey triangle is TMV treatment group, upside down triangle is TMV + MET treatment group.\nFIGS. 3(A-B) is a set of Fluorescence Activated Cell Sorting (FACS) plots showing presence of myeloid-derived suppressor cells (MDSCs) (FIG. 3A) and CD3+ cells (FIG. 3B) in the blood of 4T1 tumor-challenged mice.\nFIG. 4 is a set of graphs showing amounts of MDSCs (top panel) and CD3+ T cells (bottom panel) in the blood of 4T1 tumor-challenged mice treated with water, TMV alone, MET alone, or TMV+MET. Filled circle is water treatment group, filled square is MET treatment group, filled grey triangle is TMV treatment group, upside down triangle is TMV + MET treatment group. **p<0.01.\nThe 4T1-challenged mice were further analyzed for immunological effects upon administration of TMV, MET, or both. Blood samples were obtained from mice, and samples were subjected to analysis to determine presence of immune cell subtypes."}}, "data": [{"smiles": "CN(C)C(=N)NC(=N)N", "note": "[MET, 3-(diaminomethylidene)-1,1-dimethylguanidine]", "values": [{"measurement": "tumor growth, established tumors", "setting": "[1]; SCCVII, treatment delayed to Day 10, tumors about 50 mm^2 (FIG. 1C)", "value": "did not have a significant decrease in growth"}, {"measurement": "tumor size (in words)", "setting": "[1]; SCCVII-challenged mice, treatment from day 3 (FIG. 1B)", "value": "reduced tumor size"}, {"measurement": "number of metastatic MOC2 cells per lung", "setting": "[2]", "value": "did not have a significant reduction"}, {"measurement": "lung metastasis: tumor colony forming units", "setting": "[3]; lungs of 4T1-challenged mice at sacrifice (FIG. 6A)", "value": "not MET alone significantly reduced"}, {"measurement": "lung metastasis: overall total tumor cells", "setting": "[3]; lungs of 4T1-challenged mice at sacrifice (FIG. 6B)", "value": "not MET alone significantly reduced"}, {"measurement": "mouse survival post-surgery (in words)", "setting": "[4]; 4T1 tumors resected Day 0 (FIG. 8)", "value": "increased mouse survival"}, {"measurement": "survival", "setting": "[4]; at day 60 after resection of 4T1 tumors, 50 mg/kg metformin from Day 5 (FIG. 8)", "value": 0, "unit": "%"}, {"measurement": "MOC2 tumor growth / tumor area", "setting": "[5]", "value": "no reduction in tumor growth"}, {"measurement": "amount of myeloid derived suppressor cells (MDSC) in blood samples", "setting": "[6]; 4T1-challenged mice (FIG. 3A, FIG. 4 upper panel)", "value": "decreased"}, {"measurement": "amount of CD3+ T cells in the blood", "setting": "[6]; 4T1-challenged mice, by week 2, vs PBS control (FIG. 2A)", "value": "increased"}, {"measurement": "amount of CD4+ T cells in the blood", "setting": "[6]; 4T1-challenged mice, by week 2, vs PBS control (FIG. 2B)", "value": "increased"}, {"measurement": "amount of CD8+ T cells in the blood", "setting": "[6]; 4T1-challenged mice, by week 2, vs PBS control (FIG. 2C)", "value": "increased"}]}]}
